Laboratory results reported in the NIST ThermoML archive (doi:10.1016/j.fluid.2006.09.024).
Numbers after ± are expanded uncertainties.

Legend:
[1] = Liquid, Ebulliometric method (Recirculating still)
[2] = xn = mol fraction of the nth substance listed; conditions: 101 kPa, Liquid

C1C[C@@H]2[C@@H]3CC[C@@H](C3)[C@@H]2C1 [endo-tetrahydrodicyclopentadiene]
[1]
Conditions | vapor or sublimation pressure [kPa]
344.02 K | 2 ± 0.2
358.17 K | 3.5 ± 0.2
367.23 K | 5 ± 0.2
384.68 K | 10 ± 0.2
396.77 K | 15 ± 0.2
405.51 K | 20 ± 0.2
412.5 K | 25 ± 0.2
418.51 K | 30 ± 0.2
423.84 K | 35 ± 0.2
428.42 K | 40 ± 0.2
432.64 K | 45 ± 0.2
436.48 K | 50 ± 0.2
440.06 K | 55 ± 0.2
443.43 K | 60 ± 0.2
446.4 K | 65 ± 0.2
451.93 K | 75 ± 0.2
454.45 K | 80 ± 0.2
456.82 K | 85 ± 0.2
458.86 K | 90 ± 0.2
460.9 K | 95 ± 0.2
462.76 K | 100 ± 0.2
463.6 K | 101.6 ± 0.2

C1C[C@@H]2[C@H]3CC[C@H](C3)[C@@H]2C1 [exo-tetrahydrodicyclopentadiene]
[1]
Conditions | vapor or sublimation pressure [kPa]
335.45 K | 2 ± 0.2
349.97 K | 3.5 ± 0.2
360.37 K | 5 ± 0.2
379.33 K | 10 ± 0.2
391.56 K | 15 ± 0.2
400.07 K | 20 ± 0.2
407.31 K | 25 ± 0.2
413.28 K | 30 ± 0.2
418.87 K | 35 ± 0.2
423.1 K | 40 ± 0.2
427.5 K | 45 ± 0.2
431.46 K | 50 ± 0.2
434.98 K | 55 ± 0.2
438.26 K | 60 ± 0.2
441.37 K | 65 ± 0.2
444.02 K | 70 ± 0.2
447.09 K | 75 ± 0.2
449.62 K | 80 ± 0.2
452.19 K | 85 ± 0.2
454.39 K | 90 ± 0.2
456.75 K | 95 ± 0.2
458.83 K | 100 ± 0.2
459.38 K | 101.4 ± 0.2

C1C[C@@H]2[C@@H]3CC[C@@H](C3)[C@@H]2C1 [endo-tetrahydrodicyclopentadiene] + C1C[C@@H]2[C@H]3CC[C@H](C3)[C@@H]2C1
[2]
Conditions | kinematic viscosity, 288.15 K [m2/s] | kinematic viscosity, 298.15 K [m2/s] | kinematic viscosity, 308.15 K [m2/s] | kinematic viscosity, 318.15 K [m2/s] | mass density, 288.15 K [kg/m3] | mass density, 298.15 K [kg/m3] | mass density, 308.15 K [kg/m3] | mass density, 318.15 K [kg/m3]
x2 = 0.4028 | 6.06e-06 ± 1.6e-07 | 4.7e-06 ± 1.3e-07 | 3.67e-06 ± 1.1e-07 | 2.99e-06 ± 8.7e-08 | 954.39 ± 0.27 | 946.44 ± 0.29 | 938.48 ± 0.3 | 930.47 ± 0.32
x2 = 0.5145 | 5.23e-06 ± 1.5e-07 | 4.1e-06 ± 1.2e-07 | 3.23e-06 ± 9.4e-08 | 2.67e-06 ± 7.8e-08 | 951.54 ± 0.27 | 943.63 ± 0.29 | 935.68 ± 0.31 | 927.69 ± 0.32
x2 = 0.6017 | 4.62e-06 ± 1.3e-07 | 3.68e-06 ± 1.1e-07 | 2.96e-06 ± 8.6e-08 | 2.46e-06 ± 7.3e-08 | 949.22 ± 0.28 | 941.29 ± 0.29 | 933.37 ± 0.31 | 925.41 ± 0.33
x2 = 0.6956 | 4.18e-06 ± 1.2e-07 | 3.35e-06 ± 9.7e-08 | 2.72e-06 ± 8e-08 | 2.29e-06 ± 6.8e-08 | 946.72 ± 0.28 | 938.85 ± 0.3 | 930.9 ± 0.31 | 923 ± 0.33
x2 = 0.7966 | 3.86e-06 ± 1.1e-07 | 3.06e-06 ± 8.9e-08 | 2.49e-06 ± 7.3e-08 | 2.12e-06 ± 6.3e-08 | 944.23 ± 0.29 | 936.36 ± 0.3 | 928.49 ± 0.32 | 920.59 ± 0.33
x2 = 0.9069 | 3.47e-06 ± 1e-07 | 2.82e-06 ± 8.2e-08 | 2.31e-06 ± 6.8e-08 | 1.97e-06 ± 5.9e-08 | 941.57 ± 0.29 | 933.78 ± 0.31 | 925.9 ± 0.32 | 918.06 ± 0.34
x2 = 0.9933 | 3.18e-06 ± 9.2e-08 | 2.65e-06 ± 7.8e-08 | 2.22e-06 ± 6.6e-08 | 1.87e-06 ± 5.6e-08 | 939.58 ± 0.29 | 931.79 ± 0.31 | 923.99 ± 0.32 | 916.14 ± 0.34
